The values that follow come from patent US20250034186A1, “ANTIVIRAL COMPOUNDS” (priority 2020, published 2025).

Structures are written as SMILES.

One assay deals with RSV A2. Nature of the assay: RSV NHBE EC50, RSV A2 antiviral assay. It counts as cell-based. The note with it: human respiratory syncytial virus, 96 h; RSV A2 in NHBE cells, 4 days. On the procedure: Normal human bronchial epithelial (NHBE) cells were purchased from Lonza (Walkersville, MD, Cat #CC-2540) and cultured in Bronchial Epithelial Growth Media (BEGM) (Lonza, Walkersville, MD, Cat #CC-3170). The cells were passaged 1-2 times per week to maintain <80% confluency. The NHBE cells were discarded after 6 passages in culture.
To conduct the RSV A2 antiviral assay, NHBE cells were plated in 96-well plates at a density of 7,500 cells per well in BEGM and allowed to attach overnight at 37° C. Following attachment, 100 μL of cell culture media was removed and 3-fold serially diluted compound was added using a Hewlett-Packard D300 Digital Dispenser. The final concentration of DMSO was normalized to 0.05%. Following compound addition, the NHBE cells were infected by the addition of 100 μL of RSV A2 at a titer of 1×10^4.5 tissue culture infectious doses/mL in BEGM and then incubated at 37° C. for 4 days. The NHBE cells were then allowed to equilibrate to 25° C. and cell viability was determined by removing 100 μL of culture medium and adding 100 μL of Cell-Titer Glo viability reagent. The mixtures were incubated for 10 minutes at 25° C., and the luminescence signal was quantified on an Envision luminescence plate reader.

The next assay has as its system RSV strain A2. Kind of assay: RSV HEp-2 EC50, infectious cytopathic cell protection assay. The format is cell-based. The note with it: human respiratory syncytial virus, 96 h; RSV A2 in HEp-2 cells, 4 days, Cell TiterGlo. As for the experimental part: Antiviral activity against RSV is determined using an infectious cytopathic cell protection assay in HEp-2 cells. In this assay, compounds inhibiting viral infection and/or replication produce a cytoprotective effect against the virus-induced cell killing that can be quantified using a cell viability reagent. The techniques used here are novel adaptations of methods described in published literature (Chapman et al., Antimicrob Agents Chemother. 2007, 51(9):3346-53.).
HEp-2 cells are obtained from ATCC (Manassas, VI) and maintained in MEM media supplemented with 10% fetal bovine serum and penicillin/streptomycin. Cells are passaged twice a week and kept at subconfluent stage. Commercial stock of RSV strain A2 (Advanced Biotechnologies, Columbia, MD) is titered before compound testing to determine the appropriate dilution of the virus stock that generates desirable cytopathic effect in HEp-2 cells.
For antiviral tests, HEp-2 cells are grown in large cell culture flasks to near confluency but not fully so. The compounds to be tested are prediluted in DMSO in 384-well compound dilution plates, either in an 8 or 40 sample per plate standardized dose response format. 3-fold serial dilution increments of each test compound are prepared in the plates and test samples are transferred via acoustic transfer apparatus (Echo, Labcyte) at 100 nL per well into cell culture assay 384-well plates. Each compound dilution is transferred in single or quadruplicate samples into dry assay plates, which are stored until assay is ready to go. The positive and negative controls are laid out in opposite on ends of the plate in vertical blocks (1 column).
Subsequently, an infectious mixture is prepared using an appropriate dilution of virus stock previously determined by titration with cells at a density of 50,000/mL and 20 μL/well is added to test plates w/compounds via automation (uFlow, Biotek). Each plate includes negative and positive controls (16 replicates each) to create 0% and 100% virus inhibition standards, respectively. Following the infection with RSV, testing plates are incubated for 4 days in a 37° C. cell culture incubator. After the incubation, a cell viability reagent, Cell TiterGlo (Promega, Madison, WI) is added to the assay plates, which are incubated briefly, and a luminescent readout is measured (Envision, Perkin Elmer) in all the assay plates. The RSV-induced cytopathic effect, percentage inhibition, is determined from the levels of remaining cell viability. […] Various potent anti-RSV tool compounds are used as positive controls for antiviral activity.
A general note: Damage to the host cells serves as the signal in cytopathic effect assays.

Another assay concerns HRV16. Kind of assay: HRV16 HeLa EC50. It counts as cell-based, human rhinovirus. The note with it: Human rhinovirus sp., HRV16; H1-HeLa cells, 96 h, 33° C. As for the experimental part: H1-HeLa cells, cultured in complete DMEM medium containing 10% heat-inactivated FBS and 1% Penicillin/Streptomycin, were seeded in 96 well plates at 3000 cells/well one day prior to compound dosing and infection. The antiviral activity of each compound was measured in triplicate. Compounds were added directly to the cell cultures in serial 3-fold dilutions using the HP300 digital dispenser (Hewlett Packard, Palo Alto, CA) immediately prior to infection. The plates were transferred to BSL-2 containment and the appropriate dilution of virus stock, previously determined by titration and prepared in cell culture media, was added to test plates containing cells and serially diluted compounds. Each plate included 6 wells of infected untreated cells and 6 wells of uninfected cells that served as 0% and 100% virus inhibition control, respectively. Following the infection, test plates were incubated for 96 h in a tissue culture incubator set to 33° C./5% CO2. Following incubation, the H1-HeLa cells were removed from incubation and allowed to equilibrate to 25° C. Cell viability was determined by removing 100 μL of culture medium and adding 100 μL of Cell-Titer Glo viability reagent. The mixtures were incubated on a shaker for 10 minutes at 25° C., and the luminescence signal was quantified on an Envision luminescence plate reader.

The subject of a further assay is HRV14. Nature of the assay: HRV14 HeLa EC50. The note with it: Human rhinovirus sp., HRV14; H1-HeLa cells, 96 h, 37° C. It counts as cell-based, human rhinovirus. On the procedure:
(§1) H1-HeLa cells, cultured in complete RPMI 1640 medium containing 10% heat-inactivated FBS and 1% Penicillin/Streptomycin, were seeded in 96 well plates at 5000 cells/well one day prior to compound dosing and infection. The antiviral activity of each compound was measured in triplicate. Compounds were added directly to the cell cultures in serial 3-fold dilutions using the HP300 digital dispenser (Hewlett Packard, Palo Alto, CA) immediately prior to infection. The plates were transferred to BSL-2 containment and 100 μL of 1/4000 dilution of HRV14 virus stock was added to each well containing cells and serially diluted compounds. Each plate included 6 wells of infected untreated cells and 6 wells of cells containing 5 μM Rupintrivir that served as 0% and 100% virus inhibition control, respectively. Following the infection, test plates were incubated for 96 h in a tissue culture incubator set to 37° C./5% CO2. Following incubation, the H1-HeLa cells were removed from incubation and allowed to equilibrate to 25° C. Cell viability was determined by removing 100 μL of culture medium and adding 100 μL of Cell-Titer Glo viability reagent. The mixtures were incubated on a shaker for 10 minutes at 25° C., and the luminescence signal was quantified on an Envision luminescence plate reader.

Another assay relates to HRV1a. Kind of assay: HRV1A HeLa EC50. The format is cell-based, human rhinovirus. As to conditions: Human rhinovirus sp., HRV1A, HeLa, 96 h, read-out: HRV1A HeLa EC50. On the procedure:
as §1, with “HRV1a” for “HRV14”

Regarding `C[C@H](N[P@@](=O)(OC[C@@]1(C#N)O[C@@H](c2ccc3c(N)ncnn23)[C@H](O)[C@@H]1O)Oc1ccccc1)C(=O)OC1CCCCC1` (single isomer, unassigned) [Formula Ib], the EC50 (in general, the midpoint of the concentration-response curve) with RSV A2 stood at 630 nM; in the assay with RSV strain A2, 2740 nM; with HRV16 it was 654 nM.

With `CC(C)OC(=O)[C@H](C)NP(=O)(OC[C@@]1(C#N)O[C@@H](c2ccc3c(N)ncnn23)[C@H](O)[C@@H]1O)Oc1ccccc1` (stereo partly drawn) [Compound 3, isopropyl ((((2R,3S,4R,5S)-5-(4-aminopyrrolo[2,1-f][1,2,4]triazin-7-yl)-2-cyano-3,4-dihydroxytetrahydrofuran-2-yl)methoxy)(phenoxy)phosphoryl)-L-alaninate], the EC50 in the assay with HRV14 worked out at 1810 nM; with RSV A2 it was 1150 nM; with RSV strain A2, 463 nM; in the assay with HRV1a, 735 nM; in the assay with HRV16 it was 1420 nM.

In the case of `CC(C)OC(=O)[C@H](C)N[P@](=O)(OC[C@@]1(C#N)O[C@@H](c2ccc3c(N)ncnn23)[C@H](O)[C@@H]1O)Oc1ccccc1` [Compound 4, (S)-isopropyl 2-(((S)-(((2R,3S,4R,5S)-5-(4-aminopyrrolo[2,1-f][1,2,4]triazin-7-yl)-2-cyano-3,4-dihydroxytetrahydrofuran-2-yl)methoxy)(phenoxy)phosphoryl)amino)propanoate], the results for the concentration for a half-maximal effect (EC50) with RSV A2, in the assay on RSV strain A2 and in the assay with HRV16 were 879 nM, 342 nM and 965 nM, respectively.

On to `CCC(CC)OC(=O)[C@H](C)NP(=O)(OC[C@@]1(C#N)O[C@@H](c2ccc3c(N)ncnn23)[C@H](O)[C@@H]1O)Oc1ccccc1` (stereo partly drawn) [Compound 5, (2S)-pentan-3-yl 2-(((((2R,3S,4R,5S)-5-(4-aminopyrrolo[2,1-f][1,2,4]triazin-7-yl)-2-cyano-3,4-dihydroxytetrahydrofuran-2-yl)methoxy)(phenoxy)phosphoryl)amino)propanoate], for which the EC50 stood at 3430 nM in the assay on HRV14; 1240 nM in the assay on RSV A2; 1740 nM with RSV strain A2; 1620 nM with HRV1a; 3130 nM in the assay on HRV16.

In the case of `C[C@H](NP(=O)(OC[C@@]1(C#N)O[C@@H](c2ccc3c(N)ncnn23)[C@H](O)[C@@H]1O)Oc1ccccc1)C(=O)OC1CCCCC1` (stereo partly drawn) [Formula Ia, (2S)-cyclohexyl 2-(((((2R,3S,4R,5S)-5-(4-aminopyrrolo[2,1-f][1,2,4]triazin-7-yl)-2-cyano-3,4-dihydroxytetrahydrofuran-2-yl)methoxy)(phenoxy)phosphoryl)amino)propanoate], the EC50 stood at 76 nM in the assay with RSV A2, 96 nM in the assay with RSV strain A2 and 510 nM in the assay with HRV16.
